Laboratory results reported in patent US5116845A (priority 1990, dated 1992).

How the values were obtained:
[1] = tested on: Gram-positive aerobic bacteria; format: cell-based
Solubility = format: physicochemical
Gram-negative organisms = format: cell-based
P388 leukemia = test: Antitumor activity against P388 leukemia (ip); format: in vivo, mice; details: maximum over the doses
mice = test: Acute toxicity, intramuscular; format: in vivo; details: 5 mg/kg intramuscular
[2] = tested on: murine and human tumor cell lines; test: In vitro cytotoxicity
P388/VCR = test: In vitro cytotoxicity (viable cell count)
Moser and HCT-116 cells = details: versus murine B16-F10

Compound | activity against Gram-positive aerobic bacteria [1] | solubility in organic solvents (Solubility; chloroform, methanol and ethanol, compared with BU-3420T) | susceptibility of Gram-negative organisms (Gram-negative organisms) | maximum T/C (P388 leukemia) [%] | toxicity (mice) | cytotoxicity [2] | solubility (Solubility; chloroform) | solubility (Solubility; dimethyl sulfoxide) | solubility (Solubility; dimethylformamide) | solubility (Solubility; dioxane) | solubility (Solubility; ethanol) | solubility (Solubility; ethyl acetate) | solubility (Solubility; methanol) | solubility (Solubility; n-hexane) | solubility (Solubility; water) | cytotoxicity against VCR-resistant versus sensitive P388 cells (P388/VCR) | resistance of Moser and HCT-116 relative to B16-F10 (Moser and HCT-116 cells)
COC1=C(C(=O)O)C(C)C23OC24c2cc(OC(C)=O)c5c(c2NC3C#C/C=C\C#CC14)C(=O)c1c(OC(C)=O)ccc(OC(C)=O)c1C5=O (centres unmarked) [BU-3420T acetate] | intensely potent activity | much improved solubility | a little less susceptible | 135 | – | – | – | – | – | – | – | – | – | – | – | – | –
COC1=C(C(=O)O)C(C)C23OC24c2cc(O)c5c(c2NC3C#CC=CC#CC14)C(=O)c1c(O)ccc(O)c1C5=O (centres unmarked) [BU-3420T] | intensely potent activity | – | a little less susceptible | 135 | did not show any toxicity | potent cytotoxicity | slightly soluble | soluble | soluble | soluble | slightly soluble | slightly soluble | slightly soluble | insoluble | insoluble | same cytotoxicities | –
CO[C@@]12[C@H](COC(N)=O)C3=C(C(=O)C(C)=C(N)C3=O)N1C[C@@H]1N[C@@H]12 [Mitomycin C] | – | – | – | – | – | – | – | – | – | – | – | – | – | – | – | – | slightly more resistant
